Laboratory results as given in article PMC3199943, “Screening the MayBridge Rule of 3 Fragment Library for Compounds That Interact with the Trypanosoma brucei myo-Inositol-3-Phosphate Synthase and/or Show Trypanocidal Activity” (Molecular Biology International, 2011).
Read-outs that look alike come from different tables or passages of the source.

What was measured:
TbINO1 = target: T1, TbINO1 (Trypanosoma brucei brucei, UniProt Q5QQ46); experiment: biochemical; format: binding
T1 sequence (Q5QQ46 1-528): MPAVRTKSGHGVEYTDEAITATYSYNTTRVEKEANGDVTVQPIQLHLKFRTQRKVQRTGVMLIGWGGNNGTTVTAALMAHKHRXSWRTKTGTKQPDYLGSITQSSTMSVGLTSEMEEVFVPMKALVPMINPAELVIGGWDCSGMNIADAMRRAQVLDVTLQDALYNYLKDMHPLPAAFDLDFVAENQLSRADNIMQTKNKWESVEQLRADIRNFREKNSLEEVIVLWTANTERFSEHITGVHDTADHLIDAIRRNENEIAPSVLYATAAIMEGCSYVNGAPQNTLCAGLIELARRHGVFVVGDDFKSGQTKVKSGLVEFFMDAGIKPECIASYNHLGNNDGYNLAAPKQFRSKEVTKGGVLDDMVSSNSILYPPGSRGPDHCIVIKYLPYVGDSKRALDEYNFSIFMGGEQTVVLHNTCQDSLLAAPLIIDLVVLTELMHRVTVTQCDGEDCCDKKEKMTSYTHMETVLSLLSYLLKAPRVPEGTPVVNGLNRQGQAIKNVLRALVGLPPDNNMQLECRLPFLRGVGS

HeLa cells = experiment: cells; conditions: for viability at 500 µM: 65 h; for HeLa Cells Alamar Blue: Supplementary Table 1
Method in brief: (§1)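 Viability by Alamar Blue (5 h) after ~65 h drug treatment; seeding density 2 × 10^4 cells/well in DMEM supplemented with 10% FCS and 2 mM L-Glutamine.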

A549 cells = experiment: Cytotoxicity against A549 cells, Alamar Blue; format: cell-based; conditions: Supplementary Table 1, compound 0.5 mM, percentage of controls (n=1); for viability at 500 µM: Homo sapiens, A549, 65 h
Method in brief: as §1

[1] = read-out: Tb Ino1 Tm Shift [˚C]
[2] = Homo sapiens, HeLa, read-out: HeLa Cells Alamar Blue
[3] = Supplementary Table 1, compound 1mM, mean ± SD from Boltzman curve fitting
[4] = compound 0.5 mM, percentage of controls, mean ± SD (n=3) or SE (n=2)
[5] = Homo sapiens, HeLa, read-out: HeLa Cells Alamar Blue (% survival)
[6] = Supplementary Table 1, compound 1mM, mean ± SD from Boltzman curve fitting, read-out: Tb Ino1 Tm Shift [˚C]
[7] = Homo sapiens, HeLa, read-out: HeLa Cells Alamar Blue, Supplementary Table 1, compound 0.5 mM, percentage of controls, mean ± SD (n=3) or SE (n=2)

| Compound | ΔTm at 1000 µM (TbINO1; [1]) | viability at 500 µM (HeLa cells; [2]) | viability at 500 µM (A549 cells) | further results |
| --- | --- | --- | --- | --- |
| OCc1nccs1 [compound 38, 1,3‐thiazol‐2‐ylmethanol] | 0.18 ± 0.09 °C | 99.4 ± 4.1% | 95% |  |
| O=C(O)C1CCCO1 (centres unmarked) [compound 42, tetrahydro‐2‐furancarboxylic acid] | 0.3 ± 0.08 °C | 81.9 ± 17% | 75.1% |  |
| N#Cc1ccccc1Oc1ccccc1 [compound 591, 2‐phenoxybenzonitrile] | 0.24 ± 0.06 °C | 93 ± 2.5% | 58.3% |  |
| OCc1ccccc1Cl [compound 143, (2‐chlorophenyl)methanol] | 0.46 ± 0.05 °C | 93.3 ± 6.6% | 109% |  |
| NC(=S)c1ccsc1 [compound 148, thiophene‐3‐carbothioamide] | 0.78 ± 0.08 °C | 92.3 ± 7% | 99.6% |  |
| COc1c(C(=O)O)csc1Cl [compound 575, 5‐chloro‐4‐methoxythiophene‐3‐carboxylic acid] |  |  |  | Tb Ino1 Tm Shift [˚C] (TbINO1; [3]): 1.07 ± 0.08 °C; HeLa Cells Alamar Blue (HeLa cells; [4]): 90.5 ± 15.4 percentage of controls; A549 Cells Alamar Blue (A549 cells): 91.2 percentage of controls |
| OCCc1c[nH]c2ccccc12 [compound 277, 2‐(1H‐indol‐3‐yl)ethan‐1‐ol] | 1.12 ± 0.06 °C | 66.3 ± 1.7% | 59.9% |  |
| ON=C1CCCCCN1 [compound 87, azepan‐2‐one oxime] | 0.52 ± 0.06 °C | 92.3 ± 17.4% | 115% |  |
| O=C(O)c1cccc(N2CCCCC2)c1 [compound 663, 3‐piperidinobenzoic acid] | 1.23 ± 0.07 °C | 97.9 ± 1.5% | 104% |  |
| Nc1cc(-c2cccs2)[nH]n1 [compound 313, 5‐thien‐2‐yl‐1H‐pyrazol‐3‐amine] | 0.69 ± 0.08 °C | 101 ± 18.9% | 81.7% |  |
| NCc1ccc(-c2ccco2)cc1 [compound 373, [4‐(2‐furyl)phenyl]methylamine] | 0.48 ± 0.05 °C | 82.5 ± 14.3% | 63.4% |  |
| CC(=O)NCc1cccnc1 [compound 188, N1‐(3‐pyridylmethyl)acetamide] | 0.05 ± 0.07 °C | 104 ± 7.3% | 69.5% |  |
| CC(=O)c1sccc1N [compound 133, 1‐(3‐amino‐2‐thienyl)ethan‐1‐one] | 1.24 ± 0.07 °C | 83 ± 12.2% | 100% |  |
| NC(=S)c1ccno1 [compound 86, isoxazole‐5‐carbothioamide] | 0.94 ± 0.08 °C | 102 ± 3.4% | 105% |  |
| CC(=O)Oc1ccc(C)c2c1CCC2 [compound 541, 7‐methyl‐2,3‐dihydro‐1H‐inden‐4‐yl acetate] |  |  |  | Tb Ino1 Tm Shift [˚C] (TbINO1; [3]): 0.01 ± 0.07 °C; HeLa Cells Alamar Blue (HeLa cells; [4]): 79.8 ± 6.6 percentage of controls; A549 Cells Alamar Blue (A549 cells): 93.1 percentage of controls |
| Cc1cc(C(N)=S)n(C)n1 [compound 227, 1,3‐dimethyl‐1H‐pyrazole‐5‐carbothioamide] |  |  |  | Tb Ino1 Tm Shift [˚C] (TbINO1; [3]): 0.57 ± 0.1 °C; HeLa Cells Alamar Blue (HeLa cells; [4]): 106.7 ± 5.8 percentage of controls; A549 Cells Alamar Blue (A549 cells): 50.9 percentage of controls |
| Nc1ccccc1CN1CCOCC1 [compound 570, 2‐(morpholin‐4‐ylmethyl)aniline] | 0.35 ± 0.05 °C | 93.2 ± 17.1% | 104% |  |
| Cl.NCc1ccc2c(c1)CCO2 [compound 496, 2,3‐dihydrobenzo[b]furan‐5‐ylmethylamine hydrochloride] |  |  |  | Tb Ino1 Tm Shift [˚C] (TbINO1; [3]): 0.06 ± 0.08 °C; HeLa Cells Alamar Blue (HeLa cells; [4]): 99.8 ± 15.5 percentage of controls; A549 Cells Alamar Blue (A549 cells): 96.7 percentage of controls |
| Cc1nn(C)c2sc(CO)cc12 [compound 467, (1,3‐dimethyl‐1H‐thieno[2,3‐c]pyrazol‐5‐yl)methanol] |  |  |  | Tb Ino1 Tm Shift [˚C] (TbINO1; [3]): 0.35 ± 0.09 °C; HeLa Cells Alamar Blue (HeLa cells; [4]): 67.5 ± 16.4 percentage of controls; A549 Cells Alamar Blue (A549 cells): 70.7 percentage of controls |
| CC1(C)Cc2cccc(C(=O)O)c2O1 [compound 564, 2,2‐dimethyl‐2,3‐dihydro‐1‐benzofuran‐7‐carboxylic acid] |  |  |  | Tb Ino1 Tm Shift [˚C] (TbINO1; [3]): 0.35 ± 0.07 °C; HeLa Cells Alamar Blue (HeLa cells; [4]): 91.1 ± 19 percentage of controls; A549 Cells Alamar Blue (A549 cells): 101.2 percentage of controls |
| O=C1CCSc2ccc(Cl)cc21 [compound 609, 6-chloro-3,4-dihydro-2H-1-benzothiin-4-one] |  | 74.5 ± 13.7% | 105% | ΔTm at 1000 µM (TbINO1; read-out: TbIno1 Tm shift [°C]): 2.49 ± 0.04 °C; viability at 500 µM (HeLa cells; [5]): 74.5 ± 13.7% |

| Compound | ΔTm at 1000 µM (TbINO1; [1]) | viability at 500 µM (HeLa cells; [2]) | viability at 500 µM (A549 cells) | further results |
| --- | --- | --- | --- | --- |
| CCCc1ccc(C(C)=O)cc1 [compound 288, 1‐(4‐propylphenyl)ethan‐1‐one] | 0.22 ± 0.08 °C | 72.2 ± 17.1% | 90.6% |  |
| CC(=O)c1ccc(F)c(F)c1 [compound 234, 1‐(3,4‐difluorophenyl)ethan‐1‐one] | 0.14 ± 0.08 °C | 90.3 ± 14% | 73.9% |  |
| Cc1cc(CO)c(-c2ccccc2)o1 [compound 522, (5-methyl-2-phenyl-3-furyl)methanol] |  | 24.3 ± 17.4% | 27.1% | ΔTm at 1000 µM (TbINO1; read-out: TbIno1 Tm shift [°C]): 1.61 ± 0.06 °C; viability at 500 µM (HeLa cells; [5]): 24.3 ± 17.4% |
| OCc1ccccc1-n1cccc1 [compound 371, [2‐(1H‐pyrrol‐1‐yl)phenyl]methanol] | 0.36 ± 0.07 °C | 88.5 ± 6.4% | 87.3% |  |
| N#Cc1cc(N)ccc1-n1cccc1 [compound 471, 5‐amino‐2‐(1H‐pyrrol‐1‐yl)benzonitrile] | 0.1 ± 0.08 °C | 89.3 ± 18.8% | 81.4% |  |
| CNCc1ccccc1-c1cccs1 [compound 646, N‐methyl‐N‐(2‐thien‐2‐ylbenzyl)amine] |  |  | 66.9% | ΔTm at 1000 µM (TbINO1; [6]): 0.1 ± 0.05 °C; viability at 500 µM (HeLa cells; [7]): 36.5 ± 9.5% |
| NC(=S)C1=Cc2ccccc2OC1 [compound 558, 2H‐chromene‐3‐carbothioamide] | 0.05 ± 0.09 °C | 80.8 ± 8.8% | 98.1% |  |
| NC1Cc2ccccc2C1 [compound 104, indan‐2‐amine] |  | 70 ± 18.5% | 123% | ΔTm at 1000 µM (TbINO1; [6]): 0.89 ± 0.05 °C |
| Nc1ccc(CN2CCOCC2)cc1 [compound 567, 4‐(morpholinomethyl)aniline] | 0.61 ± 0.05 °C | 90.1 ± 15.9% | 103% |  |
| O=C(O)c1ccc2cc[nH]c2c1 [compound 271, 1H‐indole‐6‐carboxylic acid] |  |  | 75.6% | ΔTm at 1000 µM (TbINO1; [6]): 0.06 ± 0.08 °C; viability at 500 µM (HeLa cells; [7]): 111 ± 16.2% |
| COc1ccc(OC)c(CN)c1 [compound 329, 2,5‐dimethoxybenzylamine] |  | 26 ± 9% | 156% | ΔTm at 1000 µM (TbINO1; [6]): 0.97 ± 0.05 °C |
| Cc1nc(C)c(CO)s1 [compound 147, (2,4‐dimethyl‐1,3‐thiazol‐5‐yl)methanol] | 0.14 ± 0.08 °C | 93.6 ± 4.3% | 118% |  |
| OCc1ccc(N2CCOCC2)cc1 [compound 578, (4‐morpholin‐4‐yl‐phenyl)‐methanol] | 0.17 ± 0.08 °C | 42.3 ± 9% | 75.4% |  |
| O=C(O)c1cc2cccnc2s1 [compound 445, thieno[2,3‐b]pyridine‐2‐carboxylic acid] | 0.61 ± 0.08 °C | 88 ± 8.1% | 45.2% |  |
| OCc1ccc(-c2ccco2)cc1 [compound 383, [4-(2-furyl)phenyl]methanol] |  | 20 ± 10.6% | 89.6% | ΔTm at 1000 µM (TbINO1; read-out: TbIno1 Tm shift [°C]): 3.45 ± 0.09 °C; viability at 500 µM (HeLa cells; [5]): 20 ± 10.6%; CC50 (HeLa cells; Homo sapiens, HeLa, read-out: HeLa ED50): 292 ± 31 µM |
| NC(=S)Nc1ccncc1 [compound 215, N‐(4‐pyridyl)thiourea] | 0.03 ± 0.08 °C | 98.3 ± 16.5% | 59.6% |  |
| O=C(O)c1ccc(-c2ccsc2)cc1 [compound 648, 4‐(3‐thienyl)benzoic acid] | 0.25 ± 0.08 °C | 105 ± 8.2% | 149% |  |
| Cc1occc(=O)c1O [compound 74, 3‐hydroxy‐2‐methyl‐4H‐pyran‐4‐one] | 1.13 ± 0.08 °C | 107 ± 10.5% | 105% |  |
| CCOC(=O)c1[nH]c(C)c(CC)c1C [compound 594, ethyl 4‐ethyl‐3,5‐dimethyl‐1H‐pyrrole‐2‐carboxylate] |  |  |  | Tb Ino1 Tm Shift [˚C] (TbINO1; [3]): 0.17 ± 0.08 °C; HeLa Cells Alamar Blue (HeLa cells; [4]): 79.8 ± 6.6 percentage of controls; A549 Cells Alamar Blue (A549 cells): 59.9 percentage of controls |
| Cc1ccc(CO)o1 [compound 30, (5-methyl-2-furyl)methanol] |  | 23.3 ± 18.6% | 23.7% | ΔTm at 1000 µM (TbINO1; read-out: TbIno1 Tm shift [°C]): 3.79 ± 0.08 °C; viability at 500 µM (HeLa cells; [5]): 23.3 ± 18.6% |
